Laboratory results published in the supplement of paper PMC10307832.

Columns and labels:
Test in all cases: relative viability (nuclei count vs DMSO), 5 days (fraction); higher = more cells survive
AZD8055 + Luminespib = compound: COc1ccc(-c2ccc3c(N4CCOC[C@@H]4C)nc(N4CCOC[C@@H]4C)nc3n2)cc1CO [AZD8055] + CCNC(=O)c1noc(-c2cc(C(C)C)c(O)cc2O)c1-c1ccc(CN2CCOCC2)cc1 [Luminespib] (partner 0.01 µM)
Method in brief: (§1)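 Relative viability divides the nuclei count in treated wells by that in vehicle wells. Lung cancer cell lines were seeded in 1536-well plates, dosed by pin tool the next day, and fixed and stained after 5 days in one step with final 0.05% Triton X-100, 1% formaldehyde and 1 ug/ml Hoechst. Dosing was a single drug or a fixed anchor-drug dose plus five library-drug doses (not always all listed) in √10 steps, and values are medians of duplicate plates imaged at 4×.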

AZD8055 + OSI-027 = compound: COc1ccc(-c2ccc3c(N4CCOC[C@@H]4C)nc(N4CCOC[C@@H]4C)nc3n2)cc1CO [AZD8055] + COc1cccc2cc(-c3nc([C@H]4CC[C@H](C(=O)O)CC4)n4ncnc(N)c34)[nH]c12 [OSI-027] (partner 0.5 µM)
Method in brief: as §1

AZD8055 + Lapatinib = compound: COc1ccc(-c2ccc3c(N4CCOC[C@@H]4C)nc(N4CCOC[C@@H]4C)nc3n2)cc1CO [AZD8055] + CS(=O)(=O)CCNCc1ccc(-c2ccc3ncnc(Nc4ccc(OCc5cccc(F)c5)c(Cl)c4)c3c2)o1 [Lapatinib] (partner 2 µM)
Method in brief: as §1

AZD8055 + Linsitinib = compound: COc1ccc(-c2ccc3c(N4CCOC[C@@H]4C)nc(N4CCOC[C@@H]4C)nc3n2)cc1CO [AZD8055] + C[C@]1(O)C[C@@H](c2nc(-c3ccc4ccc(-c5ccccc5)nc4c3)c3c(N)nccn32)C1 [Linsitinib] (partner 1 µM)
Method in brief: as §1

Cell Line	relative viability (AZD8055 + Luminespib; first compound 0.01 µM)	relative viability (AZD8055 + Luminespib; first compound 0.03162 µM)	relative viability (AZD8055 + Luminespib; first compound 0.1 µM)	relative viability (AZD8055 + Luminespib; first compound 0.3162 µM)	relative viability (AZD8055 + Luminespib; first compound 1 µM)	relative viability (AZD8055 + OSI-027; first compound 0.01 µM)	relative viability (AZD8055 + OSI-027; first compound 0.03162 µM)	relative viability (AZD8055 + OSI-027; first compound 0.1 µM)	relative viability (AZD8055 + OSI-027; first compound 0.3162 µM)	relative viability (AZD8055 + OSI-027; first compound 1 µM)	relative viability (AZD8055 + Lapatinib; first compound 0.01 µM)	relative viability (AZD8055 + Lapatinib; first compound 0.03162 µM)	relative viability (AZD8055 + Lapatinib; first compound 0.1 µM)	relative viability (AZD8055 + Lapatinib; first compound 0.3162 µM)	relative viability (AZD8055 + Lapatinib; first compound 1 µM)	relative viability (AZD8055 + Linsitinib; first compound 0.01 µM)	relative viability (AZD8055 + Linsitinib; first compound 0.03162 µM)	relative viability (AZD8055 + Linsitinib; first compound 0.1 µM)	relative viability (AZD8055 + Linsitinib; first compound 0.3162 µM)	relative viability (AZD8055 + Linsitinib; first compound 1 µM)
NCI-H2087	0.171	0.163	0.138	0.124	0.141	0.77	0.606	0.577	0.412	0.311	1.01	0.932	0.826	0.581	0.435	0.907	0.905	0.679	0.411	0.367
NCI-H2228	0.137	0.11	0.104	0.15	0.144	0.548	0.446	0.281	0.176	0.234	1.01	0.709	0.338	0.219	0.261	0.528	0.284	0.304	0.175	0.257
NCI-H727	0.375	0.34	0.345	0.345	0.376	0.674	0.604	0.49	0.351	0.409	0.807	0.818	0.685	0.378	0.308	0.246	0.246	0.302	0.28	0.248
NCI-H650	0.998	0.768	0.691	0.436	0.295	0.528	0.492	0.602	0.368	0.344	0.838	0.73	0.58	0.341	0.319	0.889	0.575	0.556	0.342	0.293
NCI-H520	0.239	0.228	0.171	0.183	0.16	0.236	0.254	0.188	0.184	0.16	0.716	0.344	0.265	0.142	0.167	0.954	0.504	0.198	0.153	0.164
EBC-1	–	–	–	–	–	–	–	–	–	–	0.214	0.213	0.219	0.231	0.199	1.06	0.724	0.437	0.235	0.16
NCI-H661	0.971	0.906	0.886	0.424	0.367	0.782	0.668	0.575	0.41	0.341	0.434	0.43	0.414	0.307	0.256	0.567	0.41	0.516	0.253	0.293
NCI-H1299	–	–	–	–	–	–	–	–	–	–	0.974	1.07	0.98	0.758	0.439	1.08	0.948	0.798	0.436	0.295
LK-2	0.154	0.186	0.16	0.173	0.144	0.22	0.242	0.209	0.166	0.186	0.801	0.55	0.47	0.198	0.17	0.334	0.28	0.249	0.164	0.238
NCI-H1993	0.74	0.593	0.497	0.402	0.471	0.545	0.502	0.625	0.353	0.568	0.685	0.766	0.75	0.668	0.672	0.721	0.593	0.688	0.702	0.695
NCI-H2170	0.633	0.715	0.403	0.233	0.165	0.665	0.701	0.624	0.386	0.392	0.242	0.231	0.229	0.231	0.228	–	–	–	–	–
NCI-H1648	–	–	–	–	–	0.27	0.235	0.289	0.234	0.296	–	–	–	–	–	–	–	–	–	–
LCLC-103H	0.951	0.762	0.793	0.414	0.271	0.444	0.437	0.44	0.356	0.32	–	–	–	–	–	1	0.929	0.723	0.467	0.481
NCI-H441	0.347	0.291	0.283	0.22	0.221	0.676	0.647	0.476	0.408	0.339	–	–	–	–	–	0.515	0.337	0.346	0.203	0.33
NCI-H1650	0.204	0.196	0.206	0.203	0.253	0.678	0.776	0.484	0.435	0.39	0.767	0.731	0.71	0.452	0.44	–	–	–	–	–
SW 900	0.172	0.182	0.17	0.177	0.16	0.592	0.602	0.536	0.311	0.196	–	–	–	–	–	–	–	–	–	–
IA-LM	–	–	–	–	–	–	–	–	–	–	0.802	0.319	0.216	0.132	0.112	0.876	0.611	0.252	0.0793	0.118
HCC-366	–	–	–	–	–	1.08	1.01	0.845	0.437	0.288	1.12	0.93	0.864	0.27	0.2	0.539	0.245	0.218	0.0598	0.0927
NCI-H522	1.19	0.994	0.744	0.581	0.553	0.698	0.757	0.803	0.67	0.632	–	–	–	–	–	–	–	–	–	–
HCC-78	–	–	–	–	–	0.415	0.392	0.326	0.352	0.366	0.934	0.547	0.406	0.225	0.217	0.442	0.355	0.222	0.195	0.177
